Experimental data from US4731451A, “N-((2-oxo-3(2H)benzothiazolyl)methyl)-2-chloroacetanilides” (Monsanto Company, priority 1980, dated 1988).

Experiments:
Format in all cases: in vivo
Morningglory [1] = assay: Pre-emergent herbicidal activity (Table II); details: 2-3 weeks
Outline: (§1)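 Active ingredient, in solvent or as wettable powder suspension, mixed into cover soil over seeds or propagules in pans; bottom-watered in greenhouse. Percent injury rated on a fixed scale about 2-3 weeks after seeding and treatment.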

Johnsongrass = assay: Pre-emergent herbicidal activity (Table II); details: 2-3 weeks
Outline: as §1

Smartweed [2] = assay: Pre-emergent herbicidal activity (Table II); details: 2-3 weeks
Outline: as §1

Quackgrass = assay: Pre-emergent herbicidal activity (Table II); details: 2-3 weeks
Outline: as §1

Velvetleaf [3] = assay: Pre-emergent herbicidal activity (Table II); details: 2-3 weeks
Outline: as §1

Lambsquarters [4] = assay: Pre-emergent herbicidal activity (Table II); details: 2-3 weeks
Outline: as §1

Yellow Nutsedge = assay: Pre-emergent herbicidal activity (Table II); details: 2-3 weeks
Outline: as §1

Canada Thistle = assay: Pre-emergent herbicidal activity (Table II); details: 2-3 weeks
Outline: as §1

Cocklebur [5] = assay: Pre-emergent herbicidal activity (Table II); details: 2-3 weeks
Outline: as §1

Barnyardgrass [6] = assay: Pre-emergent herbicidal activity (Table II); details: 2-3 weeks
Outline: as §1

Downy Brome [7] = assay: Pre-emergent herbicidal activity (Table II); details: 2-3 weeks
Outline: as §1

Soybean = assay: Pre-emergent herbicidal activity (Table III)
Outline: (§2)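 Seeds or vegetative propagules sown in top soil in pans, then covered with soil mixed with a known amount of active ingredient (solvent or wettable-powder suspension). Greenhouse grown, watered from below; injury rated on a fixed percent-injury scale about 2-3 weeks after seeding and treatment.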

Wild Buckwheat = assay: Pre-emergent herbicidal activity (Table III)
Outline: as §2

Morningglory [8] = assay: Pre-emergent herbicidal activity (Table III)
Outline: as §2

Crabgrass = assay: Pre-emergent herbicidal activity (Table III)
Outline: as §2

Smartweed [9] = assay: Pre-emergent herbicidal activity (Table III)
Outline: as §2

Velvetleaf [10] = assay: Pre-emergent herbicidal activity (Table III)
Outline: as §2

Rice = assay: Pre-emergent herbicidal activity (Table III)
Outline: as §2

Lambsquarters [11] = assay: Pre-emergent herbicidal activity (Table III)
Outline: as §2

Hemp Sesbania = assay: Pre-emergent herbicidal activity (Table III)
Outline: as §2

Sorghum = assay: Pre-emergent herbicidal activity (Table III)
Outline: as §2

Sugarbeet = assay: Pre-emergent herbicidal activity (Table III)
Outline: as §2

Cocklebur [12] = assay: Pre-emergent herbicidal activity (Table III)
Outline: as §2

Barnyardgrass [13] = assay: Pre-emergent herbicidal activity (Table III)
Outline: as §2

Downy Brome [14] = assay: Pre-emergent herbicidal activity (Table III)
Outline: as §2

Panicum = assay: Pre-emergent herbicidal activity (Table III)
Outline: as §2
Also: ranges in brackets are in %.

CC1=C(N(Cn2c(=O)sc3ccccc32)C(=O)CCl)C(C)CCC1 (centres unmarked) [Example 1, N-(2,6-dimethyl-1-cyclohexen-1-yl)-N-[(2-oxo-3(2H)-benzothiazolyl)methyl]-2-chloroacetamide]
Herbicidal rating (Morningglory [1]; 5.6 kg/ha): 2 (50-74) | Herbicidal rating (Morningglory [1]; 11.0 kg/ha): 2 (50-74) | Herbicidal rating (Johnsongrass; 5.6 kg/ha): 0 (0-24) | Herbicidal rating (Johnsongrass; 11.0 kg/ha): 3 (75-100) | Herbicidal rating (Smartweed [2]; 5.6 kg/ha): 1 (25-49) | Herbicidal rating (Smartweed [2]; 11.0 kg/ha): 3 (75-100) | Herbicidal rating (Quackgrass; 5.6 kg/ha): 2 (50-74) | Herbicidal rating (Quackgrass; 11.0 kg/ha): 2 (50-74) | Herbicidal rating (Velvetleaf [3]; 5.6 kg/ha): 0 (0-24) | Herbicidal rating (Velvetleaf [3]; 11.0 kg/ha): 0 (0-24) | Herbicidal rating (Lambsquarters [4]; 5.6 kg/ha): 1 (25-49) | Herbicidal rating (Lambsquarters [4]; 11.0 kg/ha): 0 (0-24) | Herbicidal rating (Yellow Nutsedge; 5.6 kg/ha): 0 (0-24) | Herbicidal rating (Yellow Nutsedge; 11.0 kg/ha): 2 (50-74) | Herbicidal rating (Canada Thistle; 5.6 kg/ha): 0 (0-24) | Herbicidal rating (Canada Thistle; 11.0 kg/ha): 0 (0-24) | Herbicidal rating (Cocklebur [5]; 5.6 kg/ha): 1 (25-49) | Herbicidal rating (Cocklebur [5]; 11.0 kg/ha): 0 (0-24) | Herbicidal rating (Barnyardgrass [6]; 5.6 kg/ha): 3 (75-100) | Herbicidal rating (Barnyardgrass [6]; 11.0 kg/ha): 3 (75-100) | Herbicidal rating (Downy Brome [7]; 5.6 kg/ha): 2 (50-74) | Herbicidal rating (Downy Brome [7]; 11.0 kg/ha): 2 (50-74) | Herbicidal rating (Soybean; 0.0056 kg/ha): 0 (0-24) | Herbicidal rating (Soybean; 0.0112 kg/ha): 0 (0-24) | Herbicidal rating (Soybean; 0.056 kg/ha): 1 (25-49) | Herbicidal rating (Soybean; 0.28 kg/ha): 0 (0-24) | Herbicidal rating (Soybean; 1.12 kg/ha): 0 (0-24) | Herbicidal rating (Soybean; 5.6 kg/ha): 1 (25-49) | Herbicidal rating (Wild Buckwheat; 0.0056 kg/ha): 0 (0-24) | Herbicidal rating (Wild Buckwheat; 0.0112 kg/ha): 0 (0-24) | Herbicidal rating (Wild Buckwheat; 0.056 kg/ha): 0 (0-24) | Herbicidal rating (Wild Buckwheat; 0.28 kg/ha): 0 (0-24) | Herbicidal rating (Wild Buckwheat; 1.12 kg/ha): 0 (0-24) | Herbicidal rating (Wild Buckwheat; 5.6 kg/ha): 0 (0-24) | Herbicidal rating (Morningglory [8]; 0.0056 kg/ha): 3 (75-100) | Herbicidal rating (Morningglory [8]; 0.0112 kg/ha): 3 (75-100) | Herbicidal rating (Morningglory [8]; 0.056 kg/ha): 1 (25-49) | Herbicidal rating (Morningglory [8]; 0.28 kg/ha): 0 (0-24) | Herbicidal rating (Morningglory [8]; 1.12 kg/ha): 0 (0-24) | Herbicidal rating (Morningglory [8]; 5.6 kg/ha): 0 (0-24) | Herbicidal rating (Crabgrass; 0.0056 kg/ha): 3 (75-100) | Herbicidal rating (Crabgrass; 0.0112 kg/ha): 2 (50-74) | Herbicidal rating (Crabgrass; 0.056 kg/ha): 3 (75-100) | Herbicidal rating (Crabgrass; 0.28 kg/ha): 3 (75-100) | Herbicidal rating (Crabgrass; 1.12 kg/ha): 3 (75-100) | Herbicidal rating (Crabgrass; 5.6 kg/ha): 3 (75-100) | Herbicidal rating (Smartweed [9]; 0.0056 kg/ha): 1 (25-49) | Herbicidal rating (Smartweed [9]; 0.0112 kg/ha): 1 (25-49) | Herbicidal rating (Smartweed [9]; 0.056 kg/ha): 1 (25-49) | Herbicidal rating (Smartweed [9]; 0.28 kg/ha): 1 (25-49) | Herbicidal rating (Smartweed [9]; 1.12 kg/ha): 0 (0-24) | Herbicidal rating (Smartweed [9]; 5.6 kg/ha): 0 (0-24) | Herbicidal rating (Velvetleaf [10]; 0.0056 kg/ha): 0 (0-24) | Herbicidal rating (Velvetleaf [10]; 0.0112 kg/ha): 0 (0-24) | Herbicidal rating (Velvetleaf [10]; 0.056 kg/ha): 0 (0-24) | Herbicidal rating (Velvetleaf [10]; 0.28 kg/ha): 0 (0-24) | Herbicidal rating (Velvetleaf [10]; 1.12 kg/ha): 0 (0-24) | Herbicidal rating (Velvetleaf [10]; 5.6 kg/ha): 0 (0-24) | Herbicidal rating (Rice; 0.0056 kg/ha): 1 (25-49) | Herbicidal rating (Rice; 0.0112 kg/ha): 1 (25-49) | Herbicidal rating (Rice; 0.056 kg/ha): 0 (0-24) | Herbicidal rating (Rice; 0.28 kg/ha): 2 (50-74) | Herbicidal rating (Rice; 1.12 kg/ha): 2 (50-74) | Herbicidal rating (Rice; 5.6 kg/ha): 2 (50-74) | Herbicidal rating (Lambsquarters [11]; 0.0056 kg/ha): 1 (25-49) | Herbicidal rating (Lambsquarters [11]; 0.0112 kg/ha): 1 (25-49) | Herbicidal rating (Lambsquarters [11]; 0.056 kg/ha): 1 (25-49) | Herbicidal rating (Lambsquarters [11]; 0.28 kg/ha): 2 (50-74) | Herbicidal rating (Lambsquarters [11]; 1.12 kg/ha): 2 (50-74) | Herbicidal rating (Lambsquarters [11]; 5.6 kg/ha): 1 (25-49) | Herbicidal rating (Hemp Sesbania; 0.0112 kg/ha): 1 (25-49) | Herbicidal rating (Hemp Sesbania; 0.056 kg/ha): 0 (0-24) | Herbicidal rating (Sorghum; 0.0056 kg/ha): 0 (0-24) | Herbicidal rating (Sorghum; 0.0112 kg/ha): 1 (25-49) | Herbicidal rating (Sorghum; 0.056 kg/ha): 0 (0-24) | Herbicidal rating (Sorghum; 0.28 kg/ha): 0 (0-24) | Herbicidal rating (Sorghum; 1.12 kg/ha): 3 (75-100) | Herbicidal rating (Sorghum; 5.6 kg/ha): 1 (25-49) | Herbicidal rating (Sugarbeet; 0.0056 kg/ha): 0 (0-24) | Herbicidal rating (Sugarbeet; 0.0112 kg/ha): 0 (0-24) | Herbicidal rating (Sugarbeet; 0.056 kg/ha): 1 (25-49) | Herbicidal rating (Sugarbeet; 0.28 kg/ha): 1 (25-49) | Herbicidal rating (Sugarbeet; 1.12 kg/ha): 1 (25-49) | Herbicidal rating (Sugarbeet; 5.6 kg/ha): 1 (25-49) | Herbicidal rating (Cocklebur [12]; 0.0112 kg/ha): 0 (0-24) | Herbicidal rating (Cocklebur [12]; 0.056 kg/ha): 0 (0-24) | Herbicidal rating (Barnyardgrass [13]; 0.0056 kg/ha): 3 (75-100) | Herbicidal rating (Barnyardgrass [13]; 0.0112 kg/ha): 3 (75-100) | Herbicidal rating (Barnyardgrass [13]; 0.056 kg/ha): 3 (75-100) | Herbicidal rating (Barnyardgrass [13]; 0.28 kg/ha): 3 (75-100) | Herbicidal rating (Barnyardgrass [13]; 1.12 kg/ha): 3 (75-100) | Herbicidal rating (Barnyardgrass [13]; 5.6 kg/ha): 3 (75-100) | Herbicidal rating (Downy Brome [14]; 0.0056 kg/ha): 0 (0-24) | Herbicidal rating (Downy Brome [14]; 0.0112 kg/ha): 1 (25-49) | Herbicidal rating (Downy Brome [14]; 0.056 kg/ha): 0 (0-24) | Herbicidal rating (Downy Brome [14]; 0.28 kg/ha): 0 (0-24) | Herbicidal rating (Downy Brome [14]; 1.12 kg/ha): 3 (75-100) | Herbicidal rating (Downy Brome [14]; 5.6 kg/ha): 0 (0-24) | Herbicidal rating (Panicum; 0.0056 kg/ha): 3 (75-100) | Herbicidal rating (Panicum; 0.0112 kg/ha): 3 (75-100) | Herbicidal rating (Panicum; 0.056 kg/ha): 3 (75-100) | Herbicidal rating (Panicum; 0.28 kg/ha): 3 (75-100) | Herbicidal rating (Panicum; 1.12 kg/ha): 3 (75-100) | Herbicidal rating (Panicum; 5.6 kg/ha): 2 (50-74)
